Columns and labels:
Format in all cases: cell-based
human TLR7 = human TLR7 (Homo sapiens (Human), UniProt Q9NYK1); assay: TLR7 inhibition reporter assay (HEK-Blue, SEAP); settings: HEK-Blue cells overexpressing human TLR7, gardiquimod 7.5 μM stimulation
Protocol: (§1) TLR7/8/9 Inhibition Reporter Assays
(§2) HEK-Blue™-cells (Invivogen) overexpressing human TLR7, TLR8 or TLR9 receptors were used for screening inhibitors of these receptors using an inducible SEAP (secreted embryonic alkaline phosphatase) reporter gene under the control of the IFN-β minimal promoter fused to five NF-κc Band AP-1-binding sites. Briefly, cells are seeded into Greiner 384 well plates (15000 cells per well for TLR7, 20,000 for TLR8 and 25,000 for TLR9) and then treated with test compounds in DMSO to yield a final dose response concentration range of 0.05 nM-50 μM. After a 30 minute compound pre-treatment at room temperature, the cells are then stimulated with a TLR7 ligand (gardiquimod at a final concentration of 7.5 μM), TLR8 ligand (R848 at a final concentration of 15.9 μM) or TLR9 ligand (ODN2006 at final concentration of 5 nM) to activate NF-κB and AP-1 which induce the production of SEAP. After a 22 hour incubation at 37° C., 5% CO2, SEAP levels are determined with the addition of HEK-Bue™ Detection reagent (Invivogen), a cell culture medium that allows for detection of SEAP, according to manufacturer's specifications. The percent inhibition is determined as the % reduction in the HEK-Blue signal present in wells treated with agonist plus DMSO alone compared to wells treated with a known inhibitor.

human TLR9 = human TLR9 (Homo sapiens (Human), UniProt Q9NR96); assay: TLR9 inhibition reporter assay (HEK-Blue, SEAP); settings: HEK-Blue cells overexpressing human TLR9, ODN2006 5 nM stimulation
human TLR9, sequence (Q9NR96 26-1032): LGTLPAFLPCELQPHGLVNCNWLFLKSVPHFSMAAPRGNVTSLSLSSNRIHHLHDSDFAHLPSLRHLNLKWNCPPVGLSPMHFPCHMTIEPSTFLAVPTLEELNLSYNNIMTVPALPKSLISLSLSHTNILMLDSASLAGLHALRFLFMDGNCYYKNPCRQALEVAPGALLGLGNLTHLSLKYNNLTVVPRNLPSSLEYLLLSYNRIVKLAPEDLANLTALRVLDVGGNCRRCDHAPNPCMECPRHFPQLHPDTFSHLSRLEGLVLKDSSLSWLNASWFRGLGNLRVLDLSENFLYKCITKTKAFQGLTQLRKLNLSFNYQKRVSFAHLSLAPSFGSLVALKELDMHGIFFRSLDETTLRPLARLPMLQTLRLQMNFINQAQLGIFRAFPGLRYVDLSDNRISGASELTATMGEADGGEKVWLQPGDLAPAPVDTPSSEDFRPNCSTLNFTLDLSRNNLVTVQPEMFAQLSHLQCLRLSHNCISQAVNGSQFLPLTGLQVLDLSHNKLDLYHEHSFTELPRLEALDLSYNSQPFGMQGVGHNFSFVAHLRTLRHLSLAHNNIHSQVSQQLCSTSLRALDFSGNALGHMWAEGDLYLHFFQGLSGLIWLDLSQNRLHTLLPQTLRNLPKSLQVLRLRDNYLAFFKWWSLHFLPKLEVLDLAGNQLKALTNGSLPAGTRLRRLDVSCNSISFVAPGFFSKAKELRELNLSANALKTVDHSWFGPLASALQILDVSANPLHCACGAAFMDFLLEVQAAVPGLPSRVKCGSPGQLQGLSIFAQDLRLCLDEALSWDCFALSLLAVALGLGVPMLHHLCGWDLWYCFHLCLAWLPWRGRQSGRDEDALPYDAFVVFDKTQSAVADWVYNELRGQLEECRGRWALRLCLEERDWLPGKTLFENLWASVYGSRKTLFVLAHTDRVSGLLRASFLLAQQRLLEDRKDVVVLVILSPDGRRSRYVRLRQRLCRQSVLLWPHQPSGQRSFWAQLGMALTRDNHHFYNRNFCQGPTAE
Protocol: as §1, §2

human TLR8 = human TLR8 (Homo sapiens (Human), UniProt Q9NR97); assay: TLR8 inhibition reporter assay (HEK-Blue, SEAP); settings: HEK-Blue cells overexpressing human TLR8, R848 15.9 μM stimulation
human TLR8, sequence (Q9NR97 27-1041): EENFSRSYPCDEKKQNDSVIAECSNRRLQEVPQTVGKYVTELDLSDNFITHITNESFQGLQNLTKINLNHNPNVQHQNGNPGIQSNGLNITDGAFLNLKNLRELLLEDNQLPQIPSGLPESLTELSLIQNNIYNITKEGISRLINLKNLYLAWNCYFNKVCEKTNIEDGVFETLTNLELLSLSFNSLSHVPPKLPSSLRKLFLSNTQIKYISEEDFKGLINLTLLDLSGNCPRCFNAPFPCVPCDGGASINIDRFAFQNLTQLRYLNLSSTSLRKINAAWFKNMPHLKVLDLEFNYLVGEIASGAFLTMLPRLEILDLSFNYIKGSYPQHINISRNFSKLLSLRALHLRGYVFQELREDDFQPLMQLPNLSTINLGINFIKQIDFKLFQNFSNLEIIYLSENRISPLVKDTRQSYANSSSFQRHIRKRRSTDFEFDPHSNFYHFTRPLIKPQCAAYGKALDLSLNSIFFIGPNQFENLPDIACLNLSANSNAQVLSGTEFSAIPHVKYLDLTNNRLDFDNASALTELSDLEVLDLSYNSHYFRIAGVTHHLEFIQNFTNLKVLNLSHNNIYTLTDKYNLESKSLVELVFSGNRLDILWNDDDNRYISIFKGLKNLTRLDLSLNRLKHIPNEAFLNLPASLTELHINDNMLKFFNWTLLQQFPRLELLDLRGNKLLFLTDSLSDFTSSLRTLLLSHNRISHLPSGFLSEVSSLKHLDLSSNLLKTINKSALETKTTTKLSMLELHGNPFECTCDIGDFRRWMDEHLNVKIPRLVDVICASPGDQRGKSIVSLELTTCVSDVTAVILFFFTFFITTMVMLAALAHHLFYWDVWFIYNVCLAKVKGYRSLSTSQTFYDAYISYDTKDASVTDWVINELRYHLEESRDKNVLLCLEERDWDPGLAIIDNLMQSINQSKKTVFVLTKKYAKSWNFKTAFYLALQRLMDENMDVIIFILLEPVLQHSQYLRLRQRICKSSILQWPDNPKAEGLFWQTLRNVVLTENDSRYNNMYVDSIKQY
Protocol: as §1, §2

human TLR7, sequence (Q9NYK1 27-1049): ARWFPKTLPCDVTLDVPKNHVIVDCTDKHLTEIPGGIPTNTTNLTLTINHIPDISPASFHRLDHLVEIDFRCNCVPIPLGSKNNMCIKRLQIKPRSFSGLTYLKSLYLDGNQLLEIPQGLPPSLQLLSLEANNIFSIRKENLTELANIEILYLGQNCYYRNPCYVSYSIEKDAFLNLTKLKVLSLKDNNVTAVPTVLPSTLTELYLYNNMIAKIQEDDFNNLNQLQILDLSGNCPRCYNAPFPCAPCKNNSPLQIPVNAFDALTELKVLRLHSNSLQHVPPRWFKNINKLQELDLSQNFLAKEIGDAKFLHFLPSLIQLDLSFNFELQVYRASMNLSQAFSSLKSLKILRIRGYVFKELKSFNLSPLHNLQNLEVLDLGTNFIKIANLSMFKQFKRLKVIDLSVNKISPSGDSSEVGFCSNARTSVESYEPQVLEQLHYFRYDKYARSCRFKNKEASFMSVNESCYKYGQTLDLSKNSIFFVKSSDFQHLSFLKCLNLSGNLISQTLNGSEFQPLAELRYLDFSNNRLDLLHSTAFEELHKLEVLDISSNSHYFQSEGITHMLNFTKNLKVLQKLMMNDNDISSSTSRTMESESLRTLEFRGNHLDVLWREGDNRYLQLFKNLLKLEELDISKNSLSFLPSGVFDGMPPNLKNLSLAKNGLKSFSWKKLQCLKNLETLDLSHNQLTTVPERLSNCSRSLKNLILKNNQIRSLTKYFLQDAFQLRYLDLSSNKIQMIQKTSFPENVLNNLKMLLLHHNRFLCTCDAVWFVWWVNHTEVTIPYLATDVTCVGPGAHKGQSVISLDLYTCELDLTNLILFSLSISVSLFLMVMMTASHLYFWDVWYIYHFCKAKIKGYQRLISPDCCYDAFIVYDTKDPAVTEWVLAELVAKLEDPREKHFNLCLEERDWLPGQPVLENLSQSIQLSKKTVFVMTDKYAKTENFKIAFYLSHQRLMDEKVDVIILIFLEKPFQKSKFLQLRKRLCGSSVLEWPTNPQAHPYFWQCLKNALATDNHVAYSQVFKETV

SMILES	IC50 (human TLR7) [nM]	IC50 (human TLR9) [nM]	IC50 (human TLR8) [nM]
COc1ccc(-c2[nH]c3ccc(-c4cccc(C(=O)N5CCN(C6CCN(C)CC6)CC5)c4)cc3c2CC(F)(F)F)cc1OC [Example 37, (3-(2-(3,4-dimethoxyphenyl)-3-(2,2,2-trifluoroethyl)-1H-indol-5-yl)phenyl)(4-(1-methylpiperidin-4-yl)piperazin-1-yl)methanone]	405	2320	139
CCc1c(-c2ccc(OC)c(OC)c2)[nH]c2ccc(-c3nnc(C(=O)N(C)C)o3)cc12 [Example 38, 5-(2-(3,4-dimethoxyphenyl)-3-ethyl-1H-indol-5-yl)-N,N-dimethyl-1,3,4-oxadiazole-2-carboxamide]	1030	> 50000	151
CCc1c(-c2ccc(OC)c(OC)c2)[nH]c2ccc(-c3nnc(C(=O)NC4CCN(C(C)C)CC4)o3)cc12 [Example 39, 5-(2-(3,4-dimethoxyphenyl)-3-ethyl-1H-indol-5-yl)-N-(1-isopropylpiperidin-4-yl)-1,3,4-oxadiazole-2-carboxamide]	93	433	7.9
CCc1c(-c2ccc(OC)c(OC)c2)[nH]c2ccc(-c3nnc(C(=O)N4CC5CNCC5C4)o3)cc12 (stereo not drawn) [Example 40, (5-(2-(3,4-dimethoxyphenyl)-3-ethyl-1H-indol-5-yl)-1,3,4-oxadiazol-2-yl)(hexahydropyrrolo[3,4-c]pyrrol-2(1H)-yl)methanone]	154	325	18
CCc1c(-c2ccc(OC)c(OC)c2)[nH]c2ccc(-c3nnc(C(N)=O)o3)cc12 [Example 41, 5-(2-(3,4-dimethoxyphenyl)-3-ethyl-1H-indol-5-yl)-1,3,4-oxadiazole-2-carboxamide]	749	> 50000	173
COc1ccc(-c2[nH]c3ccc(-c4cccc(C(=O)N5CC6CNCC6C5)c4)cc3c2CC(F)(F)F)cc1OC (stereo not drawn) [Example 42, (3-(2-(3,4-dimethoxyphenyl)-3-(2,2,2-trifluoroethyl)-1H-indol-5-yl)phenyl)(hexahydropyrrolo[3,4-c]pyrrol-2(1H)-yl)methanone]	448	710	27
COc1ccc(-c2[nH]c3ccc(-c4nnc(CCN(C)C)o4)cc3c2C(C)C)cc1OC [Example 43, 2-(5-(2-(3,4-dimethoxyphenyl)-3-isopropyl-1H-indol-5-yl)-1,3,4-oxadiazol-2-yl)-N,N-dimethylethan-1-amine]	40	1460	2
COc1ccc(-c2[nH]c3ccc(-c4nnc(CN(C)C)o4)cc3c2C(C)C)cc1OC [Example 44, 1-(5-(2-(3,4-dimethoxyphenyl)-3-isopropyl-1H-indol-5-yl)-1,3,4-oxadiazol-2-yl)-N,N-dimethylmethanamine]	266	12100	14
COc1ccc(-c2[nH]c3ccc(-c4nnc(Cc5c[nH]cn5)o4)cc3c2C(C)C)cc1OC [Example 45, 2-((1H-imidazol-4-yl)methyl)-5-(2-(3,4-dimethoxyphenyl)-3-isopropyl-1H-indol-5-yl)-1,3,4-oxadiazole]	154	> 50000	16
COc1ccc(-c2[nH]c3ccc(-c4nnc(C5CCCN(C)C5)o4)cc3c2C(C)C)cc1OC (stereo not drawn) [Example 46, 2-(2-(3,4-dimethoxyphenyl)-3-isopropyl-1H-indol-5-yl)-5-(1-methylpiperidin-3-yl)-1,3,4-oxadiazole]	39	1080	6.2
COc1ccc(-c2[nH]c3ccc(-c4nnc(CCn5ccnc5)o4)cc3c2C(C)C)cc1OC [Example 47, 2-(2-(1H-imidazol-1-yl)ethyl)-5-(2-(3,4-dimethoxyphenyl)-3-isopropyl-1H-indol-5-yl)-1,3,4-oxadiazole]	194	19100	82
COc1ccc(-c2[nH]c3ccc(-c4nnc(C5CCNC5)o4)cc3c2C(C)C)cc1OC (stereo not drawn) [Example 48, 2-(2-(3,4-dimethoxyphenyl)-3-isopropyl-1H-indol-5-yl)-5-(pyrrolidin-3-yl)-1,3,4-oxadiazole]	34	2330	11
CN[C@@H](C)c1nnc(-c2ccc3[nH]c(-c4ccc(OC)c(OC)c4)c(C(C)C)c3c2)o1 [Example 49, (S)-1-(5-(2-(3,4-dimethoxyphenyl)-3-isopropyl-1H-indol-5-yl)-1,3,4-oxadiazol-2-yl)-N-methylethan-1-amine]	169	11500	11
COc1ccc(-c2[nH]c3ccc(-c4nnc(C[C@@H]5CCCCN5)o4)cc3c2C(C)C)cc1OC [Example 50, (S)-2-(2-(3,4-dimethoxyphenyl)-3-isopropyl-1H-indol-5-yl)-5-(piperidin-2-ylmethyl)-1,3,4-oxadiazole]	44	1080	5.9
COc1ccc(-c2[nH]c3ccc(-c4nnc(C[C@@H]5CCCN5)o4)cc3c2C(C)C)cc1OC [Example 51, (S)-2-(2-(3,4-dimethoxyphenyl)-3-isopropyl-1H-indol-5-yl)-5-(pyrrolidin-2-ylmethyl)-1,3,4-oxadiazole]	60	1070	7.7
COc1ccc(-c2[nH]c3ccc(-c4nnc([C@H]5CCCNC5)o4)cc3c2C(C)C)cc1OC [Example 52, (S)-2-(2-(3,4-dimethoxyphenyl)-3-isopropyl-1H-indol-5-yl)-5-(piperidin-3-yl)-1,3,4-oxadiazole]	26	770	6
COc1ccc(-c2[nH]c3ccc(-c4nnc(C5CNC5)o4)cc3c2C(C)C)cc1OC [Example 53, 2-(azetidin-3-yl)-5-(2-(3,4-dimethoxyphenyl)-3-isopropyl-1H-indol-5-yl)-1,3,4-oxadiazole]	381	3010	78
COc1ccc(-c2[nH]c3ccc(-c4nnc(C[C@H]5CCCCN5)o4)cc3c2C(C)C)cc1OC [Example 54, (R)-2-(2-(3,4-dimethoxyphenyl)-3-isopropyl-1H-indol-5-yl)-5-(piperidin-2-ylmethyl)-1,3,4-oxadiazole]	75	706	3.9
COc1ccc(-c2[nH]c3ccc(-c4nnc([C@@H]5CCCNC5)o4)cc3c2C(C)C)cc1OC [Example 55, (R)-2-(2-(3,4-dimethoxyphenyl)-3-isopropyl-1H-indol-5-yl)-5-(piperidin-3-yl)-1,3,4-oxadiazole]	32	1260	8.2
COc1ccc(-c2[nH]c3ccc(-c4nnc([C@@H]5CCCNC5)o4)cc3c2CC(F)(F)F)cc1OC [Example 56, (R)-2-(2-(3,4-dimethoxyphenyl)-3-(2,2,2-trifluoroethyl)-1H-indol-5-yl)-5-(piperidin-3-yl)-1,3,4-oxadiazole]	47	1270	25
Cc1cc(-c2[nH]c3ccc(-c4nnc(C(=O)NC5CCN(C(C)C)CC5)o4)cc3c2C(C)C)ccn1 [Example 58, 5-(3-isopropyl-2-(2-methylpyridin-4-yl)-1H-indol-5-yl)-N-(1-isopropylpiperidin-4-yl)-1,3,4-oxadiazole-2-carboxamide]	50	303	3.8
COc1ccc(-c2[nH]c3ccc(-c4nnc(C(=O)NC5CCN(C(C)C)CC5)o4)cc3c2C(C)C)cc1OC [Example 59, 5-(2-(3,4-dimethoxyphenyl)-3-isopropyl-1H-indol-5-yl)-N-(1-isopropylpiperidin-4-yl)-1,3,4-oxadiazole-2-carboxamide]	55	936	6.2
Cc1cc(-c2[nH]c3ccc(-c4nnc(C(=O)N5CC6CNCC6C5)o4)cc3c2C(C)C)ccn1 (stereo not drawn) [Example 60, (hexahydropyrrolo[3,4-c]pyrrol-2(1H)-yl)(5-(3-isopropyl-2-(2-methylpyridin-4-yl)-1H-indol-5-yl)-1,3,4-oxadiazol-2-yl)methanone]	194	283	6
COc1ccc(-c2[nH]c3ccc(-c4nnc(C(=O)N5CC6CNCC6C5)o4)cc3c2C(C)C)cc1OC (stereo not drawn) [Example 61, (5-(2-(3,4-dimethoxyphenyl)-3-isopropyl-1H-indol-5-yl)-1,3,4-oxadiazol-2-yl)(hexahydropyrrolo[3,4-c]pyrrol-2(1H)-yl)methanone]	51	454	6.9
Cc1cc(-c2[nH]c3ccc(-c4nnc(C5CCN(C(=O)CN(C)C)CC5)o4)cc3c2C(C)C)ccn1 [Example 62, 2-(dimethylamino)-1-(4-(5-(3-isopropyl-2-(2-methylpyridin-4-yl)-1H-indol-5-yl)-1,3,4-oxadiazol-2-yl)piperidin-1-yl)ethan-1-one]	31	743	2.2
COc1ccc(-c2[nH]c3ccc(-c4nnc(C)o4)cc3c2C(C)C)cc1OC [Example 63, 2-(2-(3,4-dimethoxyphenyl)-3-isopropyl-1H-indol-5-yl)-5-methyl-1,3,4-oxadiazole]	483	> 50000	235
